Measurements: US12459932B2, “KIF18A inhibitors” (AMGEN INC., priority 2018, dated 2025)

Target: T1, Recombinant human KIF18A (1-467 His-tagged) (Homo sapiens, UniProt Q8NI77)
T1 construct: Recombinant human KIF18A (1-467 His-tagged) protein; His
Assay: KIF18A Enzyme Assay: microtubule-stimulated ATPase activity (ADP-Glo)
Assay type: biochemical
Conditions: 30 nM KIF18A, 30 μg/mL pig microtubules, ATP 75 μM (Km), ADP-Glo luminescence
Outline: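 Measures microtubule-stimulated ATPase activity as ADP formed, detected by luminescence. Compounds were tested as 2-fold serial dilutions over 22 points. IC50 values came from four-parameter logistic fits.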

T1 sequence (Q8NI77 1-467): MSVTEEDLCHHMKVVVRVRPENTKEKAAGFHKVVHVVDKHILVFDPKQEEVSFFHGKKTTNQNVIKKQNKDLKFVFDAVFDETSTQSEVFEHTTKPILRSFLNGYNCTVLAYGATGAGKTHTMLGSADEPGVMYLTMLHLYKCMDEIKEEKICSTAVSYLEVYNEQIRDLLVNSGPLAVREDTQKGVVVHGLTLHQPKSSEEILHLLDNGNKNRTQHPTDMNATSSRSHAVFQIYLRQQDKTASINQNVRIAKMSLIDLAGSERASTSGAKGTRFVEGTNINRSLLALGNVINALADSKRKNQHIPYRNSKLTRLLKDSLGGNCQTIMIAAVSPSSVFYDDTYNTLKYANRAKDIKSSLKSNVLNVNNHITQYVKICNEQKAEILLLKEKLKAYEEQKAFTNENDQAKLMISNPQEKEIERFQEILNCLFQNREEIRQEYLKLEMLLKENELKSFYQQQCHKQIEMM
T1 sequence (P02550 whole entry partner): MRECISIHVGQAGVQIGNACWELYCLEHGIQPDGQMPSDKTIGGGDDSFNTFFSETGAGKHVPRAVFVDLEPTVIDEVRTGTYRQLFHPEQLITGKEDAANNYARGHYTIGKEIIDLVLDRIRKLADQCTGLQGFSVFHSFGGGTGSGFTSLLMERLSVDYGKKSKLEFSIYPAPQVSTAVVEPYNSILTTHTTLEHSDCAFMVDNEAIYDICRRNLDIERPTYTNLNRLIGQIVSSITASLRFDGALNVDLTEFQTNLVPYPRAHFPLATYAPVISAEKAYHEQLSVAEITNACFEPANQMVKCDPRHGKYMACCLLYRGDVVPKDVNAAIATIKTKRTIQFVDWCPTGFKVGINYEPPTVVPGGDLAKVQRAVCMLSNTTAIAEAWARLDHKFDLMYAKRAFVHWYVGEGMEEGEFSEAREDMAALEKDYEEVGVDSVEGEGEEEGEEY
T1 sequence (P02554 whole entry partner): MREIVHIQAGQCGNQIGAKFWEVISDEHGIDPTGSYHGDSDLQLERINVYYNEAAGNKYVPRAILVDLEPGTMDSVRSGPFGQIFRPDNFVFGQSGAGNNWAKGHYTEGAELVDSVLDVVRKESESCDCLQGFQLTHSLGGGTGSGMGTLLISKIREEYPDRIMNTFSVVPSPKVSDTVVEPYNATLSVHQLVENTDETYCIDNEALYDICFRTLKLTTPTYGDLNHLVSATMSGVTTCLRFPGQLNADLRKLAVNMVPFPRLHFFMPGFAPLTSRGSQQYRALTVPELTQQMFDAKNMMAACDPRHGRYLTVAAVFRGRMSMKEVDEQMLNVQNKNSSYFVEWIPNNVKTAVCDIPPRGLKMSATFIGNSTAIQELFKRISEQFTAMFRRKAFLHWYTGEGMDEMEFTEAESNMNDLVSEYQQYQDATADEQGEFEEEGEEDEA

Structure (SMILES)	IC50
Cc1cc(NC(=O)c2ccc(NS(=O)(=O)C(C)C)cc2N2CCC3(CC2)CC3)nc(N2CC(F)(F)C2)c1 [Example 7-28, N-(6-(3,3-Difluoroazetidin-1-yl)-4-methylpyridin-2-yl)-4-((1-methylethyl)sulfonamido)-2-(6-azaspiro[2.5]octan-6-yl)benzamide]	68 nM
Cc1cc(NC(=O)c2ccc(NS(=O)(=O)C(C)(C)C)cc2N2CCC3(CC2)CC3)nc(N2CC(F)(F)C2)c1 [Example 7-29, N-(6-(3,3-Difluoroazetidin-1-yl)-4-methylpyridin-2-yl)-4-((1,1-dimethylethyl)sulfonamido)-2-(6-azaspiro[2.5]octan-6-yl)benzamide]	134 nM
Cc1cc(NC(=O)c2ccc(NS(=O)(=O)C3CCC3)cc2N2CCC3(CC2)CC3)nc(N2CC(F)(F)C2)c1 [Example 7-30, 4-(Cyclobutanesulfonamido)-N-(6-(3,3-difluoroazetidin-1-yl)-4-methylpyridin-2-yl)-2-(6-azaspiro[2.5]octan-6-yl)benzamide]	78 nM
Cc1cc(NC(=O)c2ccc(NS(=O)(=O)CC3CC3)cc2N2CCC3(CC2)CC3)nc(N2CC(F)(F)C2)c1 [Example 7-31, 4-((Cyclopropylmethyl)sulfonamido)-N-(6-(3,3-difluoroazetidin-1-yl)-4-methylpyridin-2-yl)-2-(6-azaspiro[2.5]octan-6-yl)benzamide]	59 nM
Cc1cc(NC(=O)c2ccc(NS(=O)(=O)CF)cc2N2CCC3(CC2)CC3)nc(N2CCO[C@H](C)C2)c1 [Example 7-36, (R)-4-((Fluoromethyl)sulfonamido)-N-(4-methyl-6-(2-methylmorpholino)pyridin-2-yl)-2-(6-azaspiro[2.5]octan-6-yl)benzamide]	62 nM
CCS(=O)(=O)Nc1ccc(C(=O)Nc2cccc(N3CCO[C@H](C)C3)n2)c(N2CCC3(CC2)CC3)c1 [Example 7-37, (R)-4-(Ethylsulfonamido)-N-(6-(2-methylmorpholino)pyridin-2-yl)-2-(6-azaspiro[2.5]octan-6-yl)benzamide]	50 nM
C[C@@H]1CN(c2cccc(NC(=O)c3ccc(NS(=O)(=O)CF)cc3N3CCC4(CC3)CC4)n2)CCO1 [Example 7-38, (R)-4-((Fluoromethyl)sulfonamido)-N-(6-(2-methylmorpholino)pyridin-2-yl)-2-(6-azaspiro[2.5]octan-6-yl)benzamide]	48 nM
C[C@@H]1CN(c2cccc(NC(=O)c3ccc(NS(=O)(=O)CC(F)(F)F)cc3N3CCC4(CC3)CC4)n2)CCO1 [Example 7-39, (R)-N-(6-(2-methylmorpholino)pyridin-2-yl)-2-(6-azaspiro[2.5]octan-6-yl)-4-((2,2,2-trifluoroethyl)sulfonamido)benzamide]	135 nM
C[C@@H]1CN(c2cccc(NC(=O)c3ccc(NS(=O)(=O)C(F)(F)F)cc3N3CCC4(CC3)CC4)n2)CCO1 [Example 7-41, (R)-N-(6-(2-Methylmorpholino)pyridin-2-yl)-2-(6-azaspiro[2.5]octan-6-yl)-4-((trifluoromethyl)sulfonamido)benzamide]	207 nM
C[C@@H]1CN(c2cccc(NC(=O)c3ccc(NS(=O)(=O)CC(C)(C)O)cc3N3CCC4(CC3)CC4)n2)CCO1 [Example 7-42, (R)-4-((2-Hydroxy-2-methylpropyl)sulfonamido)-N-(6-(2-methylmorpholino)pyridin-2-yl)-2-(6-azaspiro[2.5]octan-6-yl)benzamide]	111 nM
CC(C)(C)NS(=O)(=O)c1cccc(NC(=O)c2ccc(NS(C)(=O)=O)cc2N2CCC3(CC2)CC3)n1 [Example 7-43, N-(6-(N-(tert-Butyl)sulfamoyl)pyridin-2-yl)-4-(methylsulfonamido)-2-(6-azaspiro[2.5]octan-6-yl)benzamide]	55 nM
Cc1cc(NC(=O)c2ccc(NS(=O)(=O)C3(CO)CC3)cc2N2CCC3(CC2)CC3)nc(N2CCC(F)(F)CC2)c1 [Example 10, N-(6-(4,4-Difluoropiperidin-1-yl)-4-methylpyridin-2-yl)-4-((1-(hydroxymethyl)cyclopropane)-1-sulfonamido)-2-(6-azaspiro[2.5]octan-6-yl)benzamide]	122 nM
C[C@@H]1CN(c2cccc(NC(=O)c3ccc(NS(=O)(=O)C4(CO)CC4)cc3N3CCC4(CC3)CC4)n2)CCO1 [Example 10-1, (R)-4-((1-(Hydroxymethyl)cyclopropane)-1-sulfonamido)-N-(6-(2-methylmorpholino)pyridin-2-yl)-2-(6-azaspiro[2.5]octan-6-yl) benzamide]	57 nM
Cc1cc(NC(=O)c2ccc(NS(=O)(=O)C3(CO)CC3)cc2N2CCC3(CC2)CC3)nc(N2CC(F)(F)C2)c1 [Example 10-2, N-(6-(3,3-Difluoroazetidin-1-yl)-4-methylpyridin-2-yl)-4-((1-(hydroxymethyl)cyclopropane)-1-sulfonamido)-2-(6-azaspiro[2.5]octan-6-yl)benzamide]	76 nM
CC(Oc1cccc(NC(=O)c2ccc(NS(=O)(=O)CCO)cc2N2CCC3(CC2)CC3)n1)C1CC1 (stereo not shown) [Example 16-1, N-(6-(1-Cyclopropylethoxy)pyridin-2-yl)-4-((2-hydroxyethyl)sulfonamido)-2-(6-azaspiro[2.5]octan-6-yl)benzamide]	51 nM

These reach a lower IC50. Values come first.

IC50	Structure (SMILES)
41 nM	Cc1cc(NC(=O)c2ccc(NS(=O)(=O)C3CC3)cc2N2CCC3(CC2)CC3)nc(N2CC(F)(F)C2)c1 [Example 7-34, 4-(Cyclopropanesulfonamido)-N-(6-(3,3-difluoroazetidin-1-yl)-4-methylpyridin-2-yl)-2-(6-azaspiro[2.5]octan-6-yl)benzamide]
31 nM	Cc1cc(NC(=O)c2ccc(NS(=O)(=O)CCO)cc2N2CCC3(CC2)CC3)nc(N2CC(F)(F)C2)c1 [Example 11, N-(6-(3,3-Difluoroazetidin-1-yl)-4-methylpyridin-2-yl)-4-((2-hydroxyethyl)sulfonamido)-2-(6-azaspiro[2.5]octan-6-yl)benzamide]
25 nM	Cc1cc(NC(=O)c2ccc(NS(=O)(=O)C3COC3)cc2N2CCC3(CC2)CC3)nc(N2CC(F)(F)C2)c1 [Example 7-32, N-(6-(3,3-Difluoroazetidin-1-yl)-4-methylpyridin-2-yl)-4-(oxetane-3-sulfonamido)-2-(6-azaspiro[2.5]octan-6-yl)benzamide]
24 nM	C[C@@H]1CN(c2cccc(NC(=O)c3ccc(NS(=O)(=O)CCF)cc3N3CCC4(CC3)CC4)n2)CCO1 [Example 7-35, (R)-4-((2-Fluoroethyl)sulfonamido)-N-(6-(2-methylmorpholino)pyridin-2-yl)-2-(6-azaspiro[2.5]octan-6-yl)benzamide]
19 nM	CC1(S(=O)(=O)Nc2ccc(C(=O)Nc3cccc(OCC4CC4)n3)c(N3CCC4(CC3)CC4)c2)CC1 [Example 14, N-(6-(Cyclopropylmethoxy)pyridin-2-yl)-4-((1-methylcyclopropane)-1-sulfonamido)-2-(6-azaspiro[2.5]octan-6-yl)benzamide]
16 nM	O=C(Nc1cncc(N2CCC(F)(F)CC2)n1)c1ccc(NS(=O)(=O)CCO)cc1N1CCC2(CC1)CC2 [Example 7-44, N-(6-(4,4-Difluoropiperidin-1-yl)pyrazin-2-yl)-4-((2-hydroxyethyl)sulfonamido)-2-(6-azaspiro[2.5]octan-6-yl)benzamide]
14 nM	Cc1cc(NC(=O)c2ccc(NS(C)(=O)=O)cc2N2CCC3(CC2)CC3)nc(N2CC(F)(F)C2)c1 [Example 7-27, N-(6-(3,3-Difluoroazetidin-1-yl)-4-methylpyridin-2-yl)-4-(methylsulfonamido)-2-(6-azaspiro[2.5]octan-6-yl)benzamide]
